Experimental data as given in US20220175761A1, “BI-LIGAND DRUG CONJUGATE AND USE THEREOF” (COHERENT BIOPHARMA (SUZHOU), LIMITED, priority 2019, published 2022).
Numbered stars: 1 amine (or outer) side, 2 acyl side, 3 side chain; on linkers, the order of the positions; unused ones are H or OH. Bridge positions count the residues as written; N and C are the ends. Square brackets hold non-standard residues; d marks the D form. Peptide text beside a SMILES is read from it. I, II: the chains in the order shown. * marks the point of attachment. ξ: configuration not given here. Exatecan = CC[C@@]1(O)C(=O)OCc2c1cc1n(c2=O)Cc2c-1nc1cc(F)c(C)c3c1c2[C@@H](N*)CC3; Hexanoyl(6-succinimido-3yl) = O=C1CC([*:1])C(=O)N1CCCCCC(=O)[*:2]; EuK = O=C(O)CC[C@H](NC(=O)N[C@@H](CCCCN*)C(=O)O)C(=O)O; Pteroyl = Nc1nc2ncc(CNc3ccc(C(=O)*)cc3)nc2c(=O)[nH]1; Dolaproine = CO[C@@H]([C@@H]1CCCN1)[C@@H](C)C(=O)O; Dil = CC[C@H](C)[C@H](NC)[C@@H](CC(=O)O)OC; X3 = O=C1CC([*:2])C(=O)N1CCCCCC(=O)[*:1]; γGlu = O=C(O)[C@H](CCC(=O)[*:2])N[*:1]; PABC = O=C(OCc1ccc(N[*:1])cc1)[*:2]; NHCH2OCH2CO = O=C(COCN[*:1])[*:2]; X1 = C[C@@H](N*)[C@@H](O)c1ccccc1; X2 = O=C(Cc1ccc(CN[*:1])cc1)[*:2]; NMeV = CN[C@H](C(=O)O)C(C)C; ξCit = NC(=O)NCCCC(N)C(=O)O; CO = O=C([*:1])[*:2]; ξV = CC(C)C(N)C(=O)O; ξC = NC(CS)C(=O)O

Columns and labels:
[1] = system: lung cancer PDX model LU2505; experiment: Effectiveness in lung cancer LU2505 model (PDX model); format: in vivo, BALB/c nude mice
Text: The active substance of test sample CBP-1018 is CB-20BK, which is obtained by mixing CB-20BK with auxiliary materials and then lyophilizing same.

[2] = system: lung cancer PDX model LU1206; experiment: Effectiveness in lung cancer LU1206 model (PDX model); format: in vivo, BALB/c nude mice
Procedure: BALB/c nude mice bore tumors subcutaneously and, when the tumor volume reached about 150 mm^3, were grouped into: low-dose, medium-dose and high-dose test sample groups, a small molecule MMAE control group, a targeting polypeptide 20BK-SM09 control group, and a blank control group (a total of 6 groups, and 8 mice per group); the mice were administered on day 1, day 8 and day 15 after the grouping; and the observation was continued for 14 days after the last administration.

[3] = system: LNCaP (human prostate cancer cells); experiment: Inhibition of cell line proliferation, CCK8; format: cell-based; conditions: LNCaP
Text: (§1) Since different cells have different sensitivity to a cell proliferation inhibitory toxicity of the payload in a ligand conjugate, the quantitative analysis may be interfered occasionally. A series of cell lines with known expression levels of receptors of different ligands were selected and tested for the response to inhibitory effects of the cell proliferation of a ligand conjugate and a single payload. The IC50 ratio of a single payload to that of a ligand conjugate in same cell line were taken to remove such interference.
Experimental operations: LNCaP and 22RV1 cells were prepared in advance, counted, and plated in 96-well cell culture plates at a cell density of 4×10^4 cells/ml and 2.0×10^4 cells/ml, respectively (100 μl/well); negative control and blank control wells were set on each plate. After adherent cell culture overnight, the diluted samples to be tested were added at 50 μl/well. The plates were placed in an incubator at 37° C., 5% CO2 and cultured for 68-72 hours. To each well, 15 μl (10% of the liquid volume in a well) of a color developing solution from CCK8 was added; and the plates were incubated at 37° C. for 45-70 minutes and each plate was read at 450 nm on a microplate reader. The data was edited using SoftMax Pro and a 4-P fitting curve was plotted. […]

[4] = system: 22RV1 (human prostate cancer cells); experiment: Inhibition of cell line proliferation, CCK8; format: cell-based
Text: as §1
(§2) Experimental operations: LNCaP and 22RV1 cells were prepared in advance, counted, and plated in 96-well cell culture plates at a cell density of 4×10^4 cells/ml and 2.0×10^4 cells/ml, respectively (100 μl/well); negative control and blank control wells were set on each plate. After adherent cell culture overnight, the diluted samples to be tested were added at 50 μl/well. The plates were placed in an incubator at 37° C., 5% CO2 and cultured for 68-72 hours. To each well, 15 μl (10% of the liquid volume in a well) of a color developing solution from CCK8 was added; and the plates were incubated at 37° C. for 45-70 minutes and each plate was read at 450 nm on a microplate reader. The data was edited using SoftMax Pro and a 4-P fitting curve was plotted.

FOLR1 = target: T1, FOLR1 (Homo sapiens, UniProt P15328); experiment: BIAcore T200 binding affinity to FOLR1 (CM5 chip conjugated with FOLR1); conditions: BIAcore T200
T1 construct: purchased R&D System 5646-FR
T1 sequence (P15328 25-233 limits assumed): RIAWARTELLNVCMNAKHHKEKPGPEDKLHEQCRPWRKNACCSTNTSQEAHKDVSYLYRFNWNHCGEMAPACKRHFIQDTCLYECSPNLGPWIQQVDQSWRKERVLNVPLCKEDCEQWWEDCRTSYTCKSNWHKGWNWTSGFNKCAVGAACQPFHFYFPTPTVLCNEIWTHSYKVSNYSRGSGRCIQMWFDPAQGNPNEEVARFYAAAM
Text: Buffer: HBS-EP+ buffer 10× (GE, Cat #: BR100669), diluted 10 folds with deionized water before use.
In the experiment, CM5 chip was conjugated with ligand FOLR1 (R&D System, Cat #: 5646-FR).

[5] = system: CFPAC-1 (human pancreatic cancer cells); experiment: Inhibition of cell line proliferation, CCK8; format: cell-based; conditions: CFPAC-1, 68-72 hours, CCK8
Procedure: as §2, with “PANC-1” for “LNCaP”, “CFPAC-1” for “22RV1”, “cells/ml” for “cells/ml and 2.0×10^4 cells/ml, respectively”
(§3) Experimental operations: LNCaP, SK-BR-3, NCI-H226, CFPAC-1 and PANC-1 cells were prepared in advance and counted; with a culture medium (IMDM+10% FBS+1× L-Glutamine+1×P/S), the cells LNCaP, SK-BR-3 and CFPAC-1 were diluted to 4×10^4 cells/ml, NCI-H226 was diluted to 2.0×10^4 cells/ml and PANC-1 was diluted to 3.0×10^4 cells/ml; the diluted cell solution was plated in 96-well plates at 100 μl/well; and negative control and blank control wells were set on each plate. After adherent cell culture overnight, the diluted samples to be tested were added at 50 μl/well. The plates were placed in an incubator at 37° C., 5% CO2 and cultured for 68-72 hours. To each well, 15 μl (10% of the liquid volume in a well) of a color developing solution from CCK8 was added; and the plates were incubated at 37° C. for 45-70 minutes and each plate was read at 450 nm on a microplate reader. The data was edited using SoftMax Pro and a 4-P fitting curve was plotted.
(§4) Experimental Operations: LNCaP, SK-BR-3, MDA-MB-468 and CFPAC-1 cells were prepared in advance and counted; with a culture medium (IMDM+10% FBS+1× L-Glutamine+1×P/S), the cells LNCaP, SK-BR-3, MDA-MB-468 and CFPAC-1 were diluted to 4×10^4 cells/ml; the diluted cell solution was plated in 96-well plates at 100 µl/well; and negative control and blank control wells were set on each plate. After adherent cell culture overnight, the diluted samples to be tested were added at 50 μl/well. The plates were placed in an incubator at 37° C., 5% CO2 and cultured for 68-72 hours. To each well, 15 μl (10% of the liquid volume in a well) of a color developing solution from CCK8 was added; and the plates were incubated at 37° C. for 45-70 minutes and each plate was read at 450 nm on a microplate reader. The data was edited using SoftMax Pro and a 4-P fitting curve was plotted.
as §4, with “Operations: LNCaP, MDA-MB-468, CFPAC-1 and PANC-1” for “Operations: LNCaP, SK-BR-3, MDA-MB-468 and CFPAC-1”, “CFPAC-1 and PANC-1 cells were” for “MDA-MB-468 and CFPAC-1 cells were”, “cells LNCaP, MDA-MB-468 and” for “cells LNCaP, SK-BR-3, MDA-MB-468 and”, “to 4×10^4 cells/ml, and PANC-1 was diluted to 3.0×10^4 cells/ml; the” for “to 4×10^4 cells/ml; the”, “at 100 μl/well; and negative” for “at 100 µl/well; and negative”
Experimental operations: NCI-H226, CFPAC-1 and MDA-MB-468 cells were prepared in advance and counted; MDA-MB-468 and CFPAC-1 cells were plated at a density of 2×10^4 cells/ml (100 μl/well) and NCI-H226 cells were plated at a density of 1×10^4 cells/ml (100 μl/well) in 96-well plates; and negative control and blank control wells were set on each plate. After adherent cell culture overnight, the diluted samples to be tested were added at 50 μl/well. The plates were placed in an incubator at 37° C., 5% CO2 and cultured for 68-72 hours. […]

[6] = system: NCI-H226 (human lung cancer cells); experiment: Inhibition of cell line proliferation, CCK8; format: cell-based; conditions: NCI-H226, 68-72 hours, CCK8
Procedure: as §3
(§5) Experimental operations: NCI-H226, CFPAC-1 and MDA-MB-468 cells were prepared in advance and counted; MDA-MB-468 and CFPAC-1 cells were plated at a density of 2×10^4 cells/ml (100 μl/well) and NCI-H226 cells were plated at a density of 1×10^4 cells/ml (100 μl/well) in 96-well plates; and negative control and blank control wells were set on each plate. After adherent cell culture overnight, the diluted samples to be tested were added at 50 μl/well. The plates were placed in an incubator at 37° C., 5% CO2 and cultured for 68-72 hours. To each well, 15 μl (10% of the liquid volume in a well) of a color developing solution from CCK8 was added; and the plates were incubated at 37° C. for 45-70 minutes and each plate was read at 450 nm on a microplate reader. The data was edited using SoftMax Pro and a 4-P fitting curve was plotted.

[7] = system: MDA-MB-468 (human breast cancer cells); experiment: Inhibition of cell line proliferation, CCK8; format: cell-based; conditions: MDA-MB-468, 68-72 hours, CCK8
Procedure: as §4
as §4, with “Operations: LNCaP, MDA-MB-468, CFPAC-1 and PANC-1” for “Operations: LNCaP, SK-BR-3, MDA-MB-468 and CFPAC-1”, “CFPAC-1 and PANC-1 cells were” for “MDA-MB-468 and CFPAC-1 cells were”, “cells LNCaP, MDA-MB-468 and” for “cells LNCaP, SK-BR-3, MDA-MB-468 and”, “to 4×10^4 cells/ml, and PANC-1 was diluted to 3.0×10^4 cells/ml; the” for “to 4×10^4 cells/ml; the”, “at 100 μl/well; and negative” for “at 100 µl/well; and negative”
as §5

[8] = 10 mg/kg on day 1, 8, 15, euthanized on day 29

SMILES: NCCCC[C@H](CC(=O)[C@H](CC(=O)O)NC(=O)[C@H](CC(=O)O)NC(=O)Cc1ccc(CNC(=O)NCCCC[C@H](NC(=O)N[C@@H](CCC(=O)O)C(=O)O)C(=O)O)cc1)C(=O)N[C@@H](CS)C(=O)N[C@@H](CCCCNC(=O)CC[C@H](NC(=O)c1ccc(NCc2cnc3[nH]c(N)nc(=O)c3n2)cc1)C(=O)O)C(N)=O [20BK-SM09]
- tumor growth inhibition effect (in words) ([1]; 10 mg/kg): no obvious tumor growth inhibition effect
- Tumor volume ([1]; 10 mg/kg on day 1, 8, 15, D22): 2024.75 mm^3
- Tumor weight ([1]; 10 mg/kg on day 1, 8, 15, D22): 1811.5 (D22) mg
- tumor growth inhibition effect (in words) ([2]; 10 mg/kg): no obvious tumor growth inhibition effect
- Tumor volume ([2]; 10 mg/kg on day 1, 8, 15): 1158.80 mm^3
- Tumor weight [2, 8]: 914.36 mg
- Tumor weight Inhibition ratio [2, 8]: −6.80%

SMILES: CC[C@H](C)[C@@H]([C@@H](CC(=O)N1CCC[C@H]1[C@H](OC)[C@@H](C)C(=O)N[C@H](C)[C@@H](O)c1ccccc1)OC)N(C)C(=O)[C@@H](NC(=O)[C@H](C(C)C)N(C)C(=O)OCc1ccc(NC(=O)C(CCCNC(N)=O)NC(=O)[C@@H](NC(=O)CCCCCN2C(=O)CC(SCC(NC(=O)[C@H](CCCCN)NC(=O)[C@H](CC(=O)O)NC(=O)[C@H](CC(=O)O)NC(=O)Cc3ccc(CNC(=O)NCCCC[C@H](NC(=O)N[C@@H](CCC(=O)O)C(=O)O)C(=O)O)cc3)C(N)=O)C2=O)C(C)C)cc1)C(C)C (stereo partly drawn) [CB-20AK, reference compound] (I: V[ξCit][PABC][NMeV]V[Dil][Dolaproine]-X1 / II: {EuK-CO}-[X2]DDK[ξC]-NH2; linker I:N-II:5 via X3)
- IC50 ratio (MMAE/conjugate) [3]: 0.025
- IC50 ([3]; 68-72 hours, CCK8): 102 nM
- IC50 ratio (MMAE/conjugate) ([4]; 22RV1): 0.006
- IC50 ([4]; 22RV1, 68-72 hours, CCK8): 1050 nM
- specific binding to FOLR1 (in words) (FOLR1): has not been detected to specifically bind to FOLR1

SMILES: CC[C@@]1(O)C(=O)OCc2c1cc1n(c2=O)Cc2c-1nc1cc(F)c(C)c3c1c2[C@@H](NC(=O)COCNC(=O)CNC(=O)[C@H](Cc1ccccc1)NC(=O)CNC(=O)CNC(=O)CCCCCN1C(=O)CC(SC[C@H](NC(=O)CC[C@H](NC(=O)c2ccc(NCc4cnc5[nH]c(N)nc(=O)c5n4)cc2)C(=O)O)C(=O)N[C@@H](CCCCN)C(=O)N[C@@H](CCC(=O)O)C(=O)N[C@@H](Cc2ccccc2)C(=O)N[C@@H](CC(C)C)C(=O)N[C@@H](Cc2cnc[nH]2)C(=O)N2CCC[C@H]2C(=O)N[C@@H](CO)C(=O)N[C@@H](CCCCN)C(=O)NC(C(=O)N[C@@H](CC(=O)O)C(=O)N[C@@H](CC(C)C)C(=O)N2CCC[C@H]2C(=O)N[C@@H](CCCNC(=N)N)C(=O)O)C(C)C)C1=O)CC3 (stereo partly drawn) [CR19425] (I: {Pteroyl-γGlu}-CKEFLHPSK[ξV]DLPR-OH / II: GGFG[NHCH2OCH2CO]-Exatecan; linker I:1-II:N via Hexanoyl(6-succinimido-3yl))
- IC50 [5]: 621 nM
- IC50 [6]: 1010 nM
- IC50 [7]: 951 nM
